The values below come from patent US20240025893A1, “PYRIMIDINE-AND NITROGEN-CONTAINING BICYCLIC COMPOUND” (Asahi Kasei Pharma Corporation, priority 2020, published 2024).

The structures appear in SMILES notation.

For one assay, the target named is human IRAK-4 (Homo sapiens (Human), UniProt Q9NWZ3). In words: Measurement of human IRAK-4 inhibitory activity (TR-FRET, peptide substrate phosphorylation, 10 μM ATP). Format: biochemical. The conditions noted are these: 1 nM IRAK-4, 10 μM ATP, 23° C., 30 minutes; average values. As for the experimental part:
For the measurement of the activity of the human IRAK-4 (Invitrogen, Cat. PV3362), phosphorylation of the IRAK-4 peptide substrate (biotin-KKKKRFSFKKSFKC) by the enzyme in the presence of 10 μM ATP (Sigma-Aldrich, Cat. A7699) was measured by the TR-FRET method. The enzymatic reaction was performed in a reaction buffer containing 50 mM HEPES (pH 7.2), 1 mM DTT, 0.1 mM Na3VO4, 5 mM MgCl2, 1 mM MnCl2, and 0.1% bovine serum albumin. For the measurement of the IRAK-4 inhibitory activity, a test compound was added to the reaction buffer containing 1 nM IRAK-4, 0.5 μM peptide substrate, and 10 μM ATP, and the mixture was incubated at 23° C. for 30 minutes. Then, a detection solution containing an antibody labeled with europium cryptate (0.3 μg/mL, the antibody was prepared by using the IRAK-4 peptide substrate as the antigen), streptavidin-XL665 (2 μg/mL, CisBio, Cat. 610SAXLB), 50 mM HEPES (pH 7.2), 0.1% BSA, 120 mM KF, and 66.7 mM EDTA (all the concentrations of the reagents are final concentrations) was added to terminate the reaction, and then the mixture was further incubated at 23° C. for 60 minutes. Fluorescence intensity was measured at wavelengths of 665 nm and 620 nm with a microplate reader, and the enzymatic activity was calculated as the ratio of fluorescence intensities at 665 nm and 620 nm (665 nm/620 nm).
On the technique in general: TR-FRET usually uses a lanthanide donor and a delayed reading to cut background.

Assay [1] has as its system LPS-stimulated TNFα production in THP-1 cells. In words: LPS-stimulated TNFα production inhibition test using human acute monocytic leukemia cell strain THP-1. As to conditions: LPS 2.5 ng/mL, average values. Type of assay: cell-based. As for the experimental part:
By the THP-1 assay, influence of a test compound on the TNFα production induced by LPS stimulation can be evaluated. The THP-1 cells (ATCC, Cat. TIB-202) were inoculated on a 96-well plate at a density of 1×10^5 cells/160 μL/well, a test compound was added in a volume of 20 μL, and the plate was incubated at 37° C. for 1 hour in a 5% CO2 incubator. Then, LPS in a volume of 20 μL (final concentration 2.5 ng/mL, Sigma, Cat. L2630) was added, and the plate was further incubated for 4 hours. After the incubation, the plate was centrifuged, and 100 μL of the supernatant was taken from each well, and used for evaluation of the amount of TNFα using HTRF (Cisbio, Cat. 62TNFPEB). In the measurement of the amount of TNFα, the supernatant was diluted twice with the medium, and then added to wells of a 384-well plate in a volume of 10 μL, then anti-TNFα-cryptate (5 μL), and anti-TNFα-XL665 (5 μL) were added, and the plate was left standing overnight. The fluorescence intensity ratio for the wavelengths of 620 and 665 nm (620 nm/665 nm) was measured with a microplate reader, and the amount of TNFα in the supernatant was calculated by using a calibration curve. The TNFα production suppression ratio observed with no addition of LPS was defined to be 100%, the TNFα production suppression ratio observed with no addition of the test compound was defined to be 0%, and IC50 of the test compound was calculated by using the 4-parameter logistic model of the data analysis software XLfit (ID Business Solutions Ltd.).

human IRAK-4, sequence (Q9NWZ3 whole entry): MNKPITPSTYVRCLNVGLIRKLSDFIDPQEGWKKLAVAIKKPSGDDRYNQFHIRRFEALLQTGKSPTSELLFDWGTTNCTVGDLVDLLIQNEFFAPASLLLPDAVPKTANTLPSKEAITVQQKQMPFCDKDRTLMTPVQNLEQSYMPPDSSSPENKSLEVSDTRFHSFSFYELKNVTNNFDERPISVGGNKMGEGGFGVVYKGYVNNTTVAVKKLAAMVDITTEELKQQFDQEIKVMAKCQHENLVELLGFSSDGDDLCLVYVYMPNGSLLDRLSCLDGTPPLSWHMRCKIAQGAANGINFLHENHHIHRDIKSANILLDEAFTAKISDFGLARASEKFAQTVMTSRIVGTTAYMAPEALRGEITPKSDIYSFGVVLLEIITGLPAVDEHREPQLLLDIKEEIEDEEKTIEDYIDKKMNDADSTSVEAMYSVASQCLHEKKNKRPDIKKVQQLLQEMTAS

The IC50 is the point on the concentration scale where inhibition reaches its midpoint. Higher therefore signals a need for much substance. Turning to `O=C(Nc1nc2ccc(-c3cnc(CO[C@H]4CCC[C@@H]4O)nc3)cc2s1)C1C[C@H]1C1CCOCC1` (stereo partly shown) [a-01-09], the IC50 against human IRAK-4 was determined as 1.81 nM; in assay [1] (Homo sapiens, THP-1, 4 h), 140 nM.
The corresponding values for `O=C(Nc1nc2ccc(-c3cnc(CO[C@H]4CCC[C@@H]4O)nc3)cc2s1)C1CC(N2CCN(CC(F)(F)F)CC2)C1` (stereo partly shown) [b-02-23] are 2.52 nM and 166 nM.
On to `COc1c(-c2cnc(CO[C@H]3CC(F)(F)C[C@@H]3O)nc2)ccc2nc(NC(=O)C3CC3)sc12` [c-04-01, N-(6-(2-((((1S,2S)-4,4-Difluoro-2-hydroxycyclopentyl)oxy)methyl)pyrimidin-5-yl)-7-methoxybenzo[d]thiazol-2-yl)cyclopropanecarboxamide], for which the IC50 is 4.04 nM against human IRAK-4 and 115 nM in assay [1] (Homo sapiens, THP-1, 4 h).
`CC1COC2(CCCC2)CN1C1CC(C(=O)Nc2nc3ccc(-c4cnc(CO[C@H]5CCC[C@@H]5O)nc4)cc3s2)C1` (stereo partly shown) [b-02-82]: the IC50 at human IRAK-4 turned out to be 4.02 nM; in assay [1] (Homo sapiens, THP-1, 4 h) it was 131 nM.
The corresponding values for `O=C(Nc1nc2ccc(-c3cnc(CO[C@H]4CCC[C@@H]4O)nc3)cc2s1)C1CC(N(CCC(F)(F)F)C23CC(C2)C3)C1` (stereo partly shown) [b-03-02] are 11 nM and 145 nM.
On the same counts, the results for `CC1(C)CN(C2CC(C(=O)Nc3nc4ccc(-c5cnc(CO[C@H]6CCC[C@@H]6O)nc5)cc4s3)C2)[C@@H]2CCC[C@H]2O1` (stereo partly shown) [b-02-70] are 2.94 nM and 90 nM.
As to `COc1c(-c2cnc(CO[C@H]3CCC[C@H]3O)nc2)ccn2nc(NC(=O)C3CC3)cc12` [e-04-02], the IC50 on human IRAK-4 amounted to 1.07 nM; in assay [1] (4 hours), 314 nM.
Consider `CCCOCc1ncc(-c2ccn3nc(NC(=O)[C@H]4C[C@@H](N5CCN(C(=O)c6coc(C)n6)C[C@@H]5C)C4)cc3c2)cn1` [e-02-21], for which the IC50 against human IRAK-4 amounted to 1.73 nM; in assay [1] (Homo sapiens, THP-1, 4 h) it was 188 nM.
The corresponding values for `C[C@H]1CN(C(=O)N2CCC2)CCN1[C@H]1C[C@@H](C(=O)Nc2nc3ccc(-c4cnc(CO[C@H]5CCC[C@@H]5O)nc4)cc3s2)C1` [b-05-09] are 2.13 nM and 44 nM.
On the same counts, the results for `CC(C)[C@H]1COCCN1C1CC(C(=O)Nc2nc3ccc(-c4cnc(CO[C@H]5CCC[C@@H]5O)nc4)cc3s2)C1` (stereo partly shown) [b-02-32] are 2.37 nM and 41 nM.
On the same counts, the results for `C[C@H]1CN(C(=O)C2CC2)CCN1[C@H]1C[C@@H](C(=O)Nc2nc3ccc(-c4cnc(CO[C@H]5CCC[C@@H]5O)nc4)cc3s2)C1` [b-05-02] are 2.47 nM and 56 nM.
`C[C@H]1CN(C(=O)c2cnccn2)CCN1[C@H]1C[C@@H](C(=O)Nc2nc3ccc(-c4cnc(CO[C@H]5CCC[C@@H]5O)nc4)cc3s2)C1` [b-04-34]: the IC50 amounted to 1.65 nM against human IRAK-4 and 66 nM in assay [1] (Homo sapiens, THP-1, 4 h).
In the case of `C[C@@H]1COCCN1C1CC(C(=O)Nc2nc3ccc(-c4cnc(CO[C@H]5CCC[C@@H]5O)nc4)cc3s2)C1` (stereo partly shown) [b-02-05], the IC50 against human IRAK-4 stood at 2.12 nM; in assay [1] (Homo sapiens, THP-1, 4 h), 131 nM.
The corresponding values for `C[C@H]1CN(C(=O)C2CC2)CCN1[C@H]1C[C@@H](C(=O)Nc2cc3cc(-c4cnc(CO[C@H]5CCC[C@@H]5O)nc4)ccn3n2)C1` [e-02-10] are 1.09 nM and 131 nM.
Take `Cc1cc(C(=O)N2CCN([C@H]3C[C@@H](C(=O)Nc4nc5ccc(-c6cnc(CO[C@H]7CCC[C@@H]7O)nc6)cc5s4)C3)[C@@H](C)C2)ccn1` [b-04-02, (1R,3s)-N-(6-(2-((((1S,2S)-2-Hydroxycyclopentyl)oxy)methyl)pyrimidin-5-yl)benzo[d]thiazol-2-yl)-3-((S)-2-methyl-4-(2-methylisonicotinoyl)piperazin-1-yl)cyclobutane-1-carboxamide]: the IC50 against human IRAK-4 amounted to 1.4 nM; in assay [1] (Homo sapiens, THP-1, 4 h) it was 21 nM.
Regarding `Cc1cc(C(=O)N2CCN([C@H]3C[C@@H](C(=O)Nc4cc5cc(-c6cnc(CO[C@H]7CCC[C@@H]7O)nc6)ccn5n4)C3)[C@@H](C)C2)ccn1` [e-02-01, (1R,3s)-N-(5-(2-((((1S,2S)-2-Hydroxycyclopentyl)oxy)methyl)pyrimidin-5-yl)pyrazolo[1,5-a]pyridin-2-yl)-3-((S)-2-methyl-4-(2-methylisonicotinoyl)piperazin-1-yl)cyclobutane-1-carboxamide], the IC50 at human IRAK-4 is 1.43 nM; in assay [1] (Homo sapiens, THP-1, 4 h) it was 77 nM.
With `C[C@H]1CN(C(=O)c2ccccc2)CCN1[C@H]1C[C@@H](C(=O)Nc2cc3cc(-c4cnc(CO[C@H]5CCC[C@@H]5O)nc4)ccn3n2)C1` [e-02-09], the IC50 against human IRAK-4 was determined as 1.09 nM; in assay [1] (Homo sapiens, THP-1, 4 h), 65 nM.
As for `C[C@@H]1CCCCN1C1CC(C(=O)Nc2nc3ccc(-c4cnc(CO[C@H]5CCC[C@@H]5O)nc4)cc3s2)C1` (stereo partly shown) [b-02-84], the IC50 on human IRAK-4 stood at 1.04 nM; in assay [1] (Homo sapiens, THP-1, 4 h) it was 101 nM.
The corresponding values for `C[C@H]1CN(C(=O)c2ccno2)CCN1[C@H]1C[C@@H](C(=O)Nc2nc3ccc(-c4cnc(CO[C@H]5CCC[C@@H]5O)nc4)cc3s2)C1` [b-04-33] are 1.99 nM and 55 nM.
On the same counts, the results for `Cc1c(-c2cnc(CO[C@H]3CCC[C@@H]3O)nc2)ccc2nc(NC(=O)C3CC3)sc12` [c-07-01] are 6.48 nM and 347 nM.
For the compound `C[C@H]1CN(C(=O)[C@H]2CCOC2)CCN1[C@H]1C[C@@H](C(=O)Nc2nc3ccc(-c4cnc(CO[C@H]5CCC[C@@H]5O)nc4)cc3s2)C1` [b-04-23], the IC50 was 1.41 nM against human IRAK-4 and 54 nM in assay [1] (Homo sapiens, THP-1, 4 h).
The corresponding values for `O=C(Nc1nc2ccc(-c3cnc(CO[C@H]4CCC[C@@H]4O)nc3)cc2s1)C1CC2(CCOCC2)C1` [d-01-05] are 2.07 nM and 101 nM.
The corresponding values for `O=C(Nc1nc2ccc(-c3cnc(CO[C@H]4CCC[C@@H]4O)nc3)cc2s1)C1CC(N[C@@H]2C[C@H]2C(F)(F)F)C1` (stereo partly shown) [b-02-58] are 2.7 nM and 133 nM.
On the same counts, the results for `CCCOCc1ncc(-c2ccc3nc(NC(=O)[C@H]4C[C@@H](N5CCN(C(=O)C6CCOC6)C[C@@H]5C)C4)sc3c2)cn1` (stereo partly shown) [b-04-25] are 0.88 nM and 71 nM.
As for `COc1c(-c2cnc(CO[C@H]3CCC[C@@H]3O)nc2)ccc2nc(NC(=O)[C@H]3C[C@@H](N4CCN(C(=O)OC(C)(C)C)C[C@@H]4C)C3)sc12` [c-03-01, tert-Butyl (S)-4-((1s,3R)-3-((6-(2-((((1S,2S)-2-hydroxycyclopentyl)oxy)methyl)pyrimidin-5-yl)-7-methoxybenzo[d]thiazol-2-yl)carbamoyl)cyclobutyl)-3-methylpiperazine-1-carboxylate], the IC50 on human IRAK-4 is 16.6 nM; in assay [1] (Homo sapiens, THP-1, 4 h), 49 nM.
With `O=C(Nc1nc2ccc(-c3cnc(CO[C@H]4CCC[C@@H]4O)nc3)cc2s1)C1CC2(CCN(C(=O)c3ccccn3)CC2)C1` [d-03-06], the IC50 at human IRAK-4 was 0.849 nM; in assay [1] (Homo sapiens, THP-1, 4 h), 125 nM.
In the case of `O=C(Nc1nc2ccc(-c3cnc(CO[C@H]4CCC[C@@H]4O)nc3)cc2s1)C1C[C@H]1c1cccnc1` (stereo partly shown) [a-01-05], the IC50 against human IRAK-4 was 2.08 nM; in assay [1] (Homo sapiens, THP-1, 4 h), 121 nM.
For the compound `O=C(Nc1nc2ccc(-c3cnc(CO[C@H]4CCC[C@@H]4O)nc3)cc2s1)C1CC(N2CCOCC23CC3)C1` (stereo partly shown) [b-02-37], the IC50 against human IRAK-4 turned out to be 2.22 nM; in assay [1] (Homo sapiens, THP-1, 4 h), 94 nM.
The corresponding values for `C[C@H]1CN(C(=O)C23CC(C2)C3)CCN1[C@H]1C[C@@H](C(=O)Nc2nc3ccc(-c4cnc(CO[C@H]5CCC[C@@H]5O)nc4)cc3s2)C1` [b-04-10] are 3.94 nM and 30 nM.
As to `O=C(Nc1nc2ccc(-c3cnc(CO[C@H]4CCC[C@@H]4O)nc3)cc2s1)C1CC(NC2(C(F)(F)F)COC2)C1` (stereo partly shown) [b-02-78], the IC50 was 2.29 nM at human IRAK-4 and 111 nM in assay [1] (Homo sapiens, THP-1, 4 h).
On to `C[C@H]1CN(C(=O)c2cccnc2C(F)(F)F)CCN1[C@H]1C[C@@H](C(=O)Nc2nc3ccc(-c4cnc(CO[C@H]5CCC[C@@H]5O)nc4)cc3s2)C1` [b-04-30], for which the IC50 came out at 1.49 nM on human IRAK-4 and 62 nM in assay [1] (Homo sapiens, THP-1, 4 h).
For `O=C(Nc1nc2ccc(-c3cnc(CO[C@H]4CCC[C@@H]4O)nc3)cc2s1)C1CC(N2CCOC3(CCC3)C2)C1` (stereo partly shown) [b-02-63], the IC50 was 2.39 nM at human IRAK-4 and 159 nM in assay [1] (Homo sapiens, THP-1, 4 h).
